We go through two molecules from patent US20260355150A1 (Sumitomo Pharma America, Inc., priority 2022, published 2026).

Molecules are shown by their SMILES.

Assay [1] is described as follows: Rat learned helplessness model (active avoidance). The note with it: helpless rats; for escape failures (Mean ± SEM) / inter-trial interval (ITI) crossings (Mean ± SEM): 32 mg/kg, po bid.
Procedure: In this model, rats are first exposed to inescapable foot shock to induce a helpless state which is then expressed by a subsequent failure to learn to avoid escapable foot shocks (active avoidance).
Helplessness was induced on Day 1 in 5 of the groups by exposing animals to inescapable foot shocks delivered through an electrified stainless steel grid floor every 15 seconds for 1 h. […] Treatment continued on days 2-5 with all subjects receiving test agent or vehicle twice daily (AM and PM). Active avoidance was tested 60 min after the morning dose on Days 3, 4 and 5. All rats were tested in a 2-compartment active avoidance chamber where delivery of foot shock was signaled by a light cue. The test session began with 5 min of free exploration after which 30 stimulus-shock trials were delivered during a 15 min period. Each trial lasted 30 seconds with an initial 24 second rest period, followed by a 6 second light cue presentation with foot shock delivered during the last 3 seconds. […] Failure to avoid full delivery of the foot shock (i.e., failing to cross during 3 second shock presentation) was considered an escape failure. Crossings to the opposite compartment of the shuttle box during the 24 second rest period were recorded as inter-trial interval (ITI) crossings. Escape failures and ITI crossings were analyzed by two way repeated measures ANOVA with treatment as a main factor and test session (i.e., day) as the repeated measure.
For assay [2] the following is noted: literature (Ardalan 2017; Cryan 2005; Koike 2014); acute treatment; cited from earlier work.
Assay [3] in a line: Rat forced swim test, second study (one administration 24 h prior to testing). The note with it: 10 mg/kg, ip, positive control, of 60 observations in 5 min, p < 0.05 vs vehicle (footnote a).
Procedure: In both procedures, rats were pre-exposed to a 15 min swim session (day 0) prior to the 5 min FST session which was conducted 24 h later (day 1).
In the second study, adult, male Sprague-Dawley rats (190-234 g, n=10 per group) were dosed on only one occasion immediately after the pre-swim i.e., 24 h prior to testing. […] Behavior was quantified during the 5 min test session using a time sampling technique where the actual behavior observed, i.e., immobility, climbing or swimming, was recorded every 5 seconds for a total of 60 observations. Results were analyzed by one way ANOVA followed by Dunnett's post hoc comparisons.

`CN(C)CCCN1c2ccccc2CCc2ccccc21` [Imipramine]: the “escape failures, significance” value in assay [1] (32 mg/kg po bid) is recorded as “significant reduction in escape failures”. The “escape failures (Mean ± SEM)” value in assay [1] (Day 3) is on record as 3 ± 1; in assay [1] (Day 4, p < 0.05 vs helpless/vehicle (footnote a)), 3 ± 2^a; in assay [1] (Day 5, p < 0.05 vs helpless/vehicle (footnote a)) it was 2 ± 1^a. Besides, the “inter-trial interval (ITI) crossings (Mean ± SEM)” value in assay [1] (Day 3) is 17 ± 2; in assay [1] (Day 4), 12 ± 2; in assay [1] (Day 5), 15 ± 2.
Take `CNC1(c2ccccc2Cl)CCCCC1=O` (stereo not drawn) [Ketamine]: the “antidepressant-like effects in this dosing protocol (rat FST, dosed 24 h prior to testing)” value in assay [2] is recorded as “antidepressant-like effects”. Further, the “Immobility frequency (Mean ± SEM)” value in assay [3] was 22.9 ± 3.5^a.
